Results taken from US5691349A, “Quinclidine derivatives as squalene synthase inhibitors” (Zeneca Limited, priority 1992, dated 1997).
pIC50: −log10 of the molar value. Structures can show the parent of a compound that is named as a salt.

Tests used:
squalene synthetase = biological target: T1, squalene synthetase (Rattus norvegicus, UniProt Q02769); experiment: Inhibition of Squalene Synthetase (prevention of squalene formation from tritiated farnesyl pyrophosphate, rat liver microsomal protein); assay type: biochemical; conditions: rat liver microsomes; 1-[3H]-farnesyl pyrophosphate 20 μM; 37° C.; 15 minutes; read-out: IC50 (concentration which results in a 50% inhibition of squalene production)
T1 construct: rat liver microsomal protein (20 μg); from tissue; host or cells: rat liver microsomes
T1 sequence (Q02769 1-416): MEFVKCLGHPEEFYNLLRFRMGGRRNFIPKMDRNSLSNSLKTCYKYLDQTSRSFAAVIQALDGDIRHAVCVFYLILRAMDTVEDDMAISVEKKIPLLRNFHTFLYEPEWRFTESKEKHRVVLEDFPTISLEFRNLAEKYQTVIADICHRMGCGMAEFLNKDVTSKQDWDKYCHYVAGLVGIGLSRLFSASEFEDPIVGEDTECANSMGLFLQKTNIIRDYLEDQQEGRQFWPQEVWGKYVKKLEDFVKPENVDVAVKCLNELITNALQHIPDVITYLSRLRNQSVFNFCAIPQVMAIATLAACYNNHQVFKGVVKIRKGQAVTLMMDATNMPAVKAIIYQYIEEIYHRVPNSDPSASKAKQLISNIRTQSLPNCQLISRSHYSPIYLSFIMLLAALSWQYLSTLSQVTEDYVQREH
Description: (a) Inhibition of Squalene Synthetase
In this test, the ability of a compound to prevent the formation of squalene from a radioactive substrate (tritiated farnesyl pyrophosphate) is assessed.
The test compound is incubated at a concentration of 25 micromolar in 200 μl of a buffered solution containing potassium phosphate (50 mM), MgCl2 (4.95 mM), KF (9.9 mM), NADPH (0.9 mM) and rat liver microsomal protein (20 μg). Rat liver microsomes are prepared by the method described in published European Patent Application No. 324,421 and stored in liquid nitrogen prior to assay. Assay vials are kept at 37° C. throughout the incubation.
The reaction is started with the addition of the substrate (1-[^3 H]-farnesyl pyrophosphate), final concentration 20 μM, and stopped after 15 minutes reaction time with the addition of 50 μl of 4% KOH. The reaction products are separated from unreacted substrate after application to a C-18 octadecyl 1 ccBond column (Analytichem Int product No. 617101). An aqueous fraction is eluted with 250 μl of 0.1M KOH. Squalene is then eluted with 1.0 ml 10% ethylacetate in hexane and radioactivity determined. The difference in radioactivity in the presence and absence of the test compound is used to determine the level of inhibition. […] The IC50 can then be determined from a plot of percentage inhibition against concentration of test compound.

[1] = test system: de novo hepatic cholesterol synthesis; experiment: Acute rat cholesterol synthesis assay (de novo hepatic cholesterol synthesis from 14C-acetate); assay type: in vivo; conditions: female rats, oral gavage, ip or iv dosing (route not given)
Description: (b) Acute rat cholesterol synthesis assay.
This is an acute in vivo test in the rat to measure de novo hepatic cholesterol synthesis from exogenously administered ^14 C-acetate.
Female rats (35-55 g) are housed in reverse lighting conditions (red light from 0200 h-1400 h) for a period of about 2 weeks prior to test. Animals are allowed free access to chow and drinking water throughout this period. At test, animals should weigh 125-150 g.
Test compounds may be administered by oral gavage, dissolved or suspended in 0.5% polysorbate, or by ip or iv dosing. Control animals receive vehicle alone. After 1 hour the rats are injected ip with 25 μCi [2-^14 C]-acetate (NEN DUPONT. specific activity, 45-60 mCi/mmol NEC-085H, or AMERSHAM specific activity, 50-60 mCi/mmol CFA 14) in a volume of 0.25 ml saline (100 μCi/ml). After a further hour, rats are terminally anaesthetised with halothane and a blood sample obtained from the abdominal vena cava.
1 ml of plasma is lyophilised and then saponified in 2 ml ethanolic KOH (1 part 33% KOH, 9 parts ethanol) at 75° C. for 2 hours. After addition of an equal quantity of water, non-saponifiable lipids are extracted with two 5 ml volumes of hexane. The hexane extracts are evaporated to dryness and the residues dissolved in ethanol to determine cholesterol specific radioactivity. EC50 values can be determined in the standard way.

Row | SMILES | pIC50 (squalene synthetase) | ED50 [1] [mg/kg]
1 | CCCCOc1ccc(CCC2CN3CCC2CC3)cc1 (centres unmarked) [Example 4, 3-[2-(4-butoxyphenyl)ethyl]-quinuclidine hydrochloride] | 7.48 | 
2 | CCCCCc1ccc(C#CC2(O)CN3CCC2CC3)cc1 (centres unmarked) [Example 18, 3-[2-(4-pentylphenyl)ethynyl]-3-hydroxyquinuclidine] |  | ~21.5
